In PMC11204923, “Marine Cytotoxin Santacruzamate A Derivatives as Potent HDAC1-3 Inhibitors and Their Synergistic Anti-Leukemia Effects with Venetoclax” (Marine Drugs, 2024):

Assays:
THP-1 cells = test: Cell viability assay (resazurin), THP-1; format: cell-based; conditions: Homo sapiens, THP-1, 72 h; read-out: IC50 anti-proliferative activity THP-1
Procedure: (§1) The AML cell lines MV4-11, THP-1, KASUMI-1 and HL-60 were purchased from Procell Life Science & Technology Co., Ltd. (Wuhan, China). THP-1 and KASUMI-1 were cultured in RPMI-1640 complete medium containing 10% fetal bovine serum and 1% penicillin and streptomycin. MV4-11 was cultured in IMDM complete medium containing 10% fetal bovine serum and 1% penicillin and streptomycin. HL-60 was cultured in IMDM complete medium containing 20% fetal bovine serum and 1% penicillin and streptomycin. All cell lines were cultured in an incubator with humidity set at 95%, temperature at 37 °C and 5% CO2.
(§2) MV4-11, THP-1, KASUMI-1 and HL-60 cells were plated in 96-well transparent plates (10,000 to 15,000 cells/100 μL) and after incubation overnight, cells were treated with gradient-diluted inhibitors with several concentrations. After the cells were incubated with inhibitors for 72 h, 1 mg/mL of Resazurin (Sigma-Aldrich, Saint Louis, MO, USA) was added (working concentration was 0.1 mg/mL). After incubation at 37 °C for about 3 h, the fluorescence intensity of […] was measured at 560 nm/590 nm (excitation/emission) with a Spectra Max i3 Microplate Reader, and the cell viability was determined. The IC50 curve was drawn using GraphPad Prism 9.5 software.

Kasumi-1 cells = test: Cell viability assay (resazurin), Kasumi-1; format: cell-based; conditions: Homo sapiens, Kasumi 1, 72 h; read-out: IC50 anti-proliferative activity Kasumi-1
Procedure: as §1, §2

HDAC3 = target: T1, HDAC3 (Homo sapiens, UniProt O15379); test: In vitro HDAC inhibition fluorescence assay, HDAC3; format: biochemical; conditions: for inhibition at 0.01 µM: 10 nM; for inhibition at 0.01 µM / inhibition at 0.1 µM: read-out: Inhibition Rate of HDAC3 (%); for inhibition at 0.1 µM: 100 nM
T1 construct: purchased BPS Bioscience
Procedure: (§3) All of the HDAC enzymes were purchased from BPS Bioscience. In vitro HDAC inhibition assays were conducted as previously described. In brief, 20 μL of recombinant HDAC enzyme solution (HDAC1-9, 11) was mixed with various concentrations of the tested compound (20 μL). […] After incubation at 37 °C for 2 h, the catalysis was stopped by the addition of 10 μL of developer containing 30 mg/mL trypsin and 6 μM trichostatin A (TSA). Then, 30 min later, the fluorescence intensity was measured using a microplate reader at excitation and emission wavelengths of 360 and 460 nm, respectively. The inhibition ratios were calculated from the fluorescence intensity readings of tested wells relative to those of control wells, and the IC50 curves and values were determined by GraphPad Prism 6.0, using the “log(inhibitor) vs. normalized response-variable slope” function.

HL-60 cells = test: Cell viability assay (resazurin), HL-60; format: cell-based; conditions: Homo sapiens, HL-60, 72 h; read-out: IC50 anti-proliferative activity HL-60
Procedure: as §1, §2

MV4-11 cells [1] = test: Cell viability assay (resazurin), MV4-11; format: cell-based; conditions: Homo sapiens, MV4-11, 72 h; read-out: IC50 anti-proliferative activity MV4-11
Procedure: as §1, §2

HDAC2 = target: T2, HDAC2 (Homo sapiens, UniProt Q92769); test: In vitro HDAC inhibition fluorescence assay, HDAC2; format: biochemical
T2 construct: purchased BPS Bioscience
Procedure: as §3

HDAC1 = target: T3, HDAC1 (Homo sapiens, UniProt Q13547); test: In vitro HDAC inhibition fluorescence assay, HDAC1; format: biochemical; conditions: for inhibition at 0.01 µM: 10 nM; for inhibition at 0.01 µM / inhibition at 0.1 µM: read-out: Inhibition Rate of HDAC1 (%); for inhibition at 0.1 µM: 100 nM
T3 construct: purchased BPS Bioscience
Procedure: as §3

[2] = tested on: MV4-11, THP-1, HL60 and Kasumi-1 cells; test: Cell viability assay, four AML cell lines together; format: cell-based; conditions: synthesized SCA
Procedure: as §1, §2

MV4-11 cells [3] = test: Western blot analysis; format: cell-based; conditions: Venetoclax monotherapy, 24 h
Procedure: MV4-11 cells were inoculated into 12-well plates at a density of 800,000 cells/mL. After incubation overnight, each well was treated with different concentrations of 25c and Venetoclax alone or in combination. After treatment for 24 h, the cells were collected and washed with pre-cooled PBS. A protease inhibitor (cocktail) and RIPA buffer were added for cell lysis. The decomposed solution was centrifuged at 12,000 rpm for 15 min at 4 °C, and the extracted protein was located in the supernatant. The proteins in each sample were denatured by heating at 100 °C in loading buffer (5×) for 10 min. The same amount of proteins in each sample was separated by SDS-PAGE and then electrotransferred to a PVDF membrane (Merck Millipore, Billerica, MA, USA) and enclosed in 5% skim milk powder for 1 h. The primary antibody diluted with an immune response booster solution was incubated in a shaking bed at 4 °C overnight, and the horseradish (HRP)-conjugated second antibody diluted with 5% skim milk powder was incubated at room temperature for 1 h on the second day. After the PVDF membrane was washed with TBST, the target protein bands could be detected with chemiluminescent reagents (Millipore, Billerica, MA, USA) and visualized in the Tanon 5200 + fluorescence imager.
The primary antibodies Caspase 3 (including Cleaved Caspase-3) (sc-56053), Mcl-1 (94296S), Bcl-xL (ab98143), γ-H2AX (9718S), AcHH3 (Lys27) (8173S), AcHH4 (sc-377520), HH3 (ab1791), Ac-tubulin (sc-23950), HDAC6 (sc-28386), α-tubulin (sc-23948), GAPDH (sc-59540) and β-actin (8H10D10) were purchased from Abcam, Cell Signaling Technology and Santa Cruz Biotechnology.

MV4-11 cells [4] = test: Microdilution checkerboard assay, 25c combined with Venetoclax; format: cell-based; conditions: Homo sapiens, 72 h, read-out: Inhibition Rate (%)
Procedure: The inhibition effect of 25c combined with Venetoclax on the proliferation of MV4-11 cells was determined by microdilution checkerboard assay. CompuSyn software was used to calculate the combined action index of the two compounds, and the cell inhibition rates of the two compounds acting alone and the combined action were input to calculate the combination index (CI) to evaluate the synergistic effect of the drugs. A CI value less than 1 indicates a synergistic effect, a CI value equal to 1 indicates an additive effect and a CI value greater than 1 indicates an antagonistic effect.

T2 sequence (Q92769 whole entry): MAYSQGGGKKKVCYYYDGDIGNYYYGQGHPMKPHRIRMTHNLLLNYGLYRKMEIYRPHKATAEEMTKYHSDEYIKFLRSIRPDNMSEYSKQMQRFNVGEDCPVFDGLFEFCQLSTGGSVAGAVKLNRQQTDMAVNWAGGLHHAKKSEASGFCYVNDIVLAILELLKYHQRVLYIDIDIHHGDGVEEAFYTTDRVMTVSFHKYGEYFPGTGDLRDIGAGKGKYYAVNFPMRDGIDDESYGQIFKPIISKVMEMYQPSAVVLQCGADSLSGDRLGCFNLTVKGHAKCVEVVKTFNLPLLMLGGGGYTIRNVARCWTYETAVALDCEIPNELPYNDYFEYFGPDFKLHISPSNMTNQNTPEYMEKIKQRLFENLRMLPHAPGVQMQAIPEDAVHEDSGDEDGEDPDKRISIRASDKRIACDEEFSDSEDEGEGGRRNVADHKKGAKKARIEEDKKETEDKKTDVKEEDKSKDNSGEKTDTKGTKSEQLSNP
T3 sequence (Q13547 whole entry): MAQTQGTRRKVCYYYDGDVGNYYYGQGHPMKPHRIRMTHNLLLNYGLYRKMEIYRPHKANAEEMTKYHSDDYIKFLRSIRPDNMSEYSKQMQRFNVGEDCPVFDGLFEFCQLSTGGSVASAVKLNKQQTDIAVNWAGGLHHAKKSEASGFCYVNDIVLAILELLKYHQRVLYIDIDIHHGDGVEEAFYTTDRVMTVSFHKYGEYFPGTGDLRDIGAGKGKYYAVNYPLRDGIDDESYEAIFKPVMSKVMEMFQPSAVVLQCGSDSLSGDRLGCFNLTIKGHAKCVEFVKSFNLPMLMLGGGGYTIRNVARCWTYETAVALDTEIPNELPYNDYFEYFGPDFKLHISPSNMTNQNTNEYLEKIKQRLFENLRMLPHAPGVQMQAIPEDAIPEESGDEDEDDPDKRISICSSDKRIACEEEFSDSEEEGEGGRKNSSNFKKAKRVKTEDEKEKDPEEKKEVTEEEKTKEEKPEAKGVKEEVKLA
T1 sequence (O15379 whole entry): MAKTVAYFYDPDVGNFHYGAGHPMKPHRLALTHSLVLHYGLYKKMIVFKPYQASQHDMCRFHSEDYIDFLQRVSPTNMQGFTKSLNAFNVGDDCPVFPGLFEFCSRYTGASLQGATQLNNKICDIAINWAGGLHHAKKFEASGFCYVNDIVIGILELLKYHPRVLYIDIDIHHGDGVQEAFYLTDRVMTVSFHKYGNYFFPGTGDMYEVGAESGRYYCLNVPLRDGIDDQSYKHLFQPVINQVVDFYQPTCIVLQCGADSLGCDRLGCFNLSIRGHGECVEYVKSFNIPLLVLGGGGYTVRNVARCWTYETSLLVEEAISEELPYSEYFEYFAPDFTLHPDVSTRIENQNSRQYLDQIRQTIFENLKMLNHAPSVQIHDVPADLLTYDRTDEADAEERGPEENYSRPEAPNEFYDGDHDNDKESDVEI
T1 sequence (Q9Y618 395-489 partner limits assumed): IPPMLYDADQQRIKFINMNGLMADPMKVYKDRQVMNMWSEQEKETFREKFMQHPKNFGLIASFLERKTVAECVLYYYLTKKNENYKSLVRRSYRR

Compound: CCCNNC(=O)C=Cc1ccc(CNCc2ccccc2)cc1 [Compound 25b, 3-(4-((Benzylamino)methyl)phenyl)-N′-propylacrylohydrazide]
- IC50 (THP-1 cells): 516 ± 145 nM
- IC50 (Kasumi-1 cells): 448 ± 122 nM
- IC50 (HDAC3): 2.7 ± 0.6 nM
- inhibition at 0.01 µM (HDAC3): 94.8 ± 0.1%
- inhibition at 0.1 µM (HDAC3): 97.9 ± 0.2%
- IC50 (HL-60 cells): 736 ± 24.8 nM
- IC50 (MV4-11 cells [1]): 362 ± 76.8 nM
- IC50 (HDAC2): 111 ± 16.9 nM
- IC50 (HDAC1): 27 ± 2 nM
- inhibition at 0.01 µM (HDAC1): 21.8 ± 1.6%
- inhibition at 0.1 µM (HDAC1): 77 ± 0.3%

Compound: CCCNNC(=O)C=Cc1ccc(CNC2Cc3ccccc3C2)cc1 [Compound 25e, 3-(4-(((2,3-Dihydro-1H-inden-2-yl)amino)methyl)phenyl)-N′-propylacrylohydrazide]
- IC50 (THP-1 cells): 451 ± 73.8 nM
- IC50 (Kasumi-1 cells): 380 ± 147 nM
- IC50 (HDAC3): 3.1 ± 1.5 nM
- inhibition at 0.01 µM (HDAC3): 94.8 ± 0.5%
- inhibition at 0.1 µM (HDAC3): 95.6 ± 0.2%
- IC50 (HL-60 cells): 502 ± 189 nM
- IC50 (MV4-11 cells [1]): 353 ± 119 nM
- IC50 (HDAC2): 161 ± 29 nM
- IC50 (HDAC1): 36.5 ± 5 nM
- inhibition at 0.01 µM (HDAC1): 10.9 ± 1.2%
- inhibition at 0.1 µM (HDAC1): 78.7 ± 0.7%

Compound: CCCNNC(=O)C=Cc1ccc(CNCc2cccc3ccccc23)cc1 [Compound 25g, 3-(4-(((Naphthalen-1-ylmethyl)amino)methyl)phenyl)-N′-propylacrylohydrazide]
- IC50 (THP-1 cells): 1020 ± 498 nM
- IC50 (Kasumi-1 cells): 1010 ± 643 nM
- inhibition at 0.01 µM (HDAC3): 45.9%
- inhibition at 0.1 µM (HDAC3): 71.1 ± 1.6%
- IC50 (HL-60 cells): 650 ± 247 nM
- IC50 (MV4-11 cells [1]): 582 ± 240 nM
- IC50 (HDAC2): 46.3 ± 4.1 nM
- IC50 (HDAC1): 16 ± 1 nM
- inhibition at 0.01 µM (HDAC1): 33.9%
- inhibition at 0.1 µM (HDAC1): 76.5 ± 5%

Compound: Nc1ccccc1NC(=O)c1ccc(CNC(=O)OCc2cccnc2)cc1 [Entinostat, reference compound]
- IC50 (THP-1 cells): 1520 ± 218 nM
- IC50 (Kasumi-1 cells): 480 ± 161 nM
- IC50 (HL-60 cells): 1100 ± 51.5 nM
- IC50 (MV4-11 cells [1]): 651 ± 37.4 nM
- inhibition at 0.01 µM (HDAC1): 3.8 ± 1.1%
- inhibition at 0.1 µM (HDAC1): 37.6 ± 2.6%

Compound: CCOC(=O)NCCCC(=O)NCCc1ccccc1 [SCA, Santacruzamate A]
- IC50 (THP-1 cells): > 10000 nM
- anti-proliferative inhibitory activity in four AML cell lines [2]: no inhibitory activity was detected
- IC50 (Kasumi-1 cells): > 10000 nM
- enzyme inhibitory activity, HDAC3 (HDAC3; screening at 100 nM and 10 nM): no activity
- IC50 (HL-60 cells): > 10000 nM
- IC50 (MV4-11 cells [1]): > 10000 nM
- enzyme inhibitory activity, HDAC1 (HDAC1; screening at 100 nM and 10 nM): no activity

Compound: CC1(C)CCC(CN2CCN(c3ccc(C(=O)NS(=O)(=O)c4ccc(NCC5CCOCC5)c([N+](=O)[O-])c4)c(Oc4cnc5[nH]ccc5c4)c3)CC2)=C(c2ccc(Cl)cc2)C1 [Venetoclax]
- level of cleaved-caspase3 (MV4-11 cells [3]): slightly higher
- inhibition at 0.04 µM (MV4-11 cells [4]; Venetoclax 0.04 μM alone): 36.5%
- inhibition at 0.08 µM (MV4-11 cells [4]; Venetoclax 0.08 μM alone): 62.3%
- inhibition at 0.15 µM (MV4-11 cells [4]; Venetoclax 0.15 μM alone): 78.5%
